{"source": "paper PMC5224920", "about": "“Assessing the mechanism and therapeutic potential of modulators of the human Mediator complex-associated protein kinases” (eLife, 2016)", "test_system": "12 single or co-culture in vitro tissue models of primary cells", "assay": "Culture/co-culture cell model panel, extracellular biomarkers (DiscoveRx); as to CCL2/MCP-1: reference of the scale not given here; as to CXCL8/IL-8: reference of the scale not given here; as to CXCL9/MIG: reference of the scale not given here; as to IL-1alpha: reference of the scale not given here; as to PBMC Cytotoxicity: reference of the scale not given here; as to SRB: reference of the scale not given here", "type": "cell-based, human", "data": [{"smiles": "Cn1ncc2cc(-c3cnc(N)c(Cl)c3N3CCC4(CCNC4=O)CC3)ccc21", "note": "[CMPD 3]", "values": [{"measurement": "SRB", "setting": "BENo, 1.00E3 nM", "result": 0.000914}, {"measurement": "tPA", "setting": "BENo, 1.00E3 nM", "result": -0.008}, {"measurement": "uPA", "setting": "BENo, 1.00E3 nM", "result": 0.00377}, {"measurement": "CCL26/Eotaxin-3", "setting": "BENo, 1.00E4 nM", "result": 0.042}, {"measurement": "CD54/ICAM-1", "setting": "BENo, 1.00E4 nM", "result": 0.016}, {"measurement": "CD87/uPAR", "setting": "BENo, 1.00E4 nM", "result": 0.038}, {"measurement": "CXCL8/IL-8", "setting": "BENo, 1.00E4 nM", "result": 0.023}, {"measurement": "CXCL9/MIG", "setting": "BENo, 1.00E4 nM", "result": 0.059}, {"measurement": "CXCL10/IP-10", "setting": "BENo, 1.00E4 nM", "result": 0.042}, {"measurement": "CXCL11/I-TAC", "setting": "BENo, 1.00E4 nM", "result": 0.073}, {"measurement": "EGFR", "setting": "BENo, 1.00E4 nM", "result": 0.00756}, {"measurement": "HLA-DR", "setting": "BENo, 1.00E4 nM", "result": 0.014}, {"measurement": "IL-1alpha", "setting": "BENo, 1.00E4 nM", "result": -0.053}, {"measurement": "Keratin 8/18", "setting": "BENo, 1.00E4 nM", "result": 0.041}, {"measurement": "MMP-1", "setting": "BENo, 1.00E4 nM", "result": -0.026}, {"measurement": "MMP-9", "setting": "BENo, 1.00E4 nM", "result": 0.010}, {"measurement": "PAI-I", "setting": "BENo, 1.00E4 nM", "result": -0.144}, {"measurement": "SRB", "setting": "BENo, 1.00E4 nM", "result": -0.006}, {"measurement": "tPA", "setting": "BENo, 1.00E4 nM", "result": 0.015}, {"measurement": "uPA", "setting": "BENo, 1.00E4 nM", "result": -0.00171}, {"measurement": "CCL2/MCP-1", "setting": "BF4T, 1.00E0 nM", "result": -0.034}, {"measurement": "CCL26/Eotaxin-3", "setting": "BF4T, 1.00E0 nM", "result": -0.012}, {"measurement": "CD54/ICAM-1", "setting": "BF4T, 1.00E0 nM", "result": 0.007}, {"measurement": "CD90", "setting": "BF4T, 1.00E0 nM", "result": -0.021}, {"measurement": "CD106/VCAM-1", "setting": "BF4T, 1.00E0 nM", "result": 0.067}, {"measurement": "CXCL8/IL-8", "setting": "BF4T, 1.00E0 nM", "result": 0.013}, {"measurement": "IL-1alpha", "setting": "BF4T, 1.00E0 nM", "result": 0.00747}, {"measurement": "Keratin 8/18", "setting": "BF4T, 1.00E0 nM", "result": 0.00256}, {"measurement": "MMP-1", "setting": "BF4T, 1.00E0 nM", "result": 0.013}, {"measurement": "MMP-3", "setting": "BF4T, 1.00E0 nM", "result": 0.056}, {"measurement": "MMP-9", "setting": "BF4T, 1.00E0 nM", "result": 0.030}, {"measurement": "PAI-I", "setting": "BF4T, 1.00E0 nM", "result": 0.049}, {"measurement": "SRB", "setting": "BF4T, 1.00E0 nM", "result": 0.00349}, {"measurement": "tPA", "setting": "BF4T, 1.00E0 nM", "result": 0.039}, {"measurement": "uPA", "setting": "BF4T, 1.00E0 nM", "result": 0.035}, {"measurement": "CCL2/MCP-1", "setting": "BF4T, 1.00E1 nM", "result": -0.011}, {"measurement": "CCL26/Eotaxin-3", "setting": "BF4T, 1.00E1 nM", "result": -0.071}, {"measurement": "CD54/ICAM-1", "setting": "BF4T, 1.00E1 nM", "result": -0.035}, {"measurement": "CD90", "setting": "BF4T, 1.00E1 nM", "result": 0.005}, {"measurement": "CD106/VCAM-1", "setting": "BF4T, 1.00E1 nM", "result": -0.00425}, {"measurement": "CXCL8/IL-8", "setting": "BF4T, 1.00E1 nM", "result": 0.046}, {"measurement": "IL-1alpha", "setting": "BF4T, 1.00E1 nM", "result": 0.008}, {"measurement": "Keratin 8/18", "setting": "BF4T, 1.00E1 nM", "result": 0.009}, {"measurement": "MMP-1", "setting": "BF4T, 1.00E1 nM", "result": -0.00365}, {"measurement": "MMP-3", "setting": "BF4T, 1.00E1 nM", "result": 0.023}, {"measurement": "MMP-9", "setting": "BF4T, 1.00E1 nM", "result": 0.007}, {"measurement": "PAI-I", "setting": "BF4T, 1.00E1 nM", "result": -0.00638}, {"measurement": "SRB", "setting": "BF4T, 1.00E1 nM", "result": 0.000434}, {"measurement": "tPA", "setting": "BF4T, 1.00E1 nM", "result": 0.032}, {"measurement": "uPA", "setting": "BF4T, 1.00E1 nM", "result": -0.000167}, {"measurement": "CCL2/MCP-1", "setting": "BF4T, 1.00E2 nM", "result": -0.034}, {"measurement": "CCL26/Eotaxin-3", "setting": "BF4T, 1.00E2 nM", "result": -0.085}, {"measurement": "CD54/ICAM-1", "setting": "BF4T, 1.00E2 nM", "result": -0.034}, {"measurement": "CD90", "setting": "BF4T, 1.00E2 nM", "result": 0.00329}, {"measurement": "CD106/VCAM-1", "setting": "BF4T, 1.00E2 nM", "result": -0.010}, {"measurement": "CXCL8/IL-8", "setting": "BF4T, 1.00E2 nM", "result": 0.040}, {"measurement": "IL-1alpha", "setting": "BF4T, 1.00E2 nM", "result": -0.00155}, {"measurement": "Keratin 8/18", "setting": "BF4T, 1.00E2 nM", "result": 0.017}, {"measurement": "MMP-1", "setting": "BF4T, 1.00E2 nM", "result": -0.009}, {"measurement": "MMP-3", "setting": "BF4T, 1.00E2 nM", "result": 0.032}, {"measurement": "MMP-9", "setting": "BF4T, 1.00E2 nM", "result": -0.020}, {"measurement": "PAI-I", "setting": "BF4T, 1.00E2 nM", "result": -0.00143}, {"measurement": "SRB", "setting": "BF4T, 1.00E2 nM", "result": 0.00276}, {"measurement": "tPA", "setting": "BF4T, 1.00E2 nM", "result": 0.041}, {"measurement": "uPA", "setting": "BF4T, 1.00E2 nM", "result": 0.017}, {"measurement": "CCL2/MCP-1", "setting": "BF4T, 1.00E3 nM", "result": -0.042}, {"measurement": "CCL26/Eotaxin-3", "setting": "BF4T, 1.00E3 nM", "result": -0.098}, {"measurement": "CD54/ICAM-1", "setting": "BF4T, 1.00E3 nM", "result": -0.035}, {"measurement": "CD90", "setting": "BF4T, 1.00E3 nM", "result": 0.00842}, {"measurement": "CD106/VCAM-1", "setting": "BF4T, 1.00E3 nM", "result": -0.023}, {"measurement": "CXCL8/IL-8", "setting": "BF4T, 1.00E3 nM", "result": 0.030}, {"measurement": "IL-1alpha", "setting": "BF4T, 1.00E3 nM", "result": -0.009}, {"measurement": "Keratin 8/18", "setting": "BF4T, 1.00E3 nM", "result": 0.034}, {"measurement": "MMP-1", "setting": "BF4T, 1.00E3 nM", "result": 0.000873}, {"measurement": "MMP-3", "setting": "BF4T, 1.00E3 nM", "result": 0.030}, {"measurement": "MMP-9", "setting": "BF4T, 1.00E3 nM", "result": -0.009}, {"measurement": "PAI-I", "setting": "BF4T, 1.00E3 nM", "result": 0.022}, {"measurement": "SRB", "setting": "BF4T, 1.00E3 nM", "result": 0.00179}, {"measurement": "tPA", "setting": "BF4T, 1.00E3 nM", "result": 0.045}, {"measurement": "uPA", "setting": "BF4T, 1.00E3 nM", "result": 0.019}, {"measurement": "CCL2/MCP-1", "setting": "BF4T, 1.00E4 nM", "result": -0.010}, {"measurement": "CCL26/Eotaxin-3", "setting": "BF4T, 1.00E4 nM", "result": -0.092}, {"measurement": "CD54/ICAM-1", "setting": "BF4T, 1.00E4 nM", "result": -0.042}, {"measurement": "CD90", "setting": "BF4T, 1.00E4 nM", "result": 0.017}, {"measurement": "CD106/VCAM-1", "setting": "BF4T, 1.00E4 nM", "result": 0.005}, {"measurement": "CXCL8/IL-8", "setting": "BF4T, 1.00E4 nM", "result": 0.022}, {"measurement": "IL-1alpha", "setting": "BF4T, 1.00E4 nM", "result": -0.002}, {"measurement": "Keratin 8/18", "setting": "BF4T, 1.00E4 nM", "result": 0.038}, {"measurement": "MMP-1", "setting": "BF4T, 1.00E4 nM", "result": 0.00226}, {"measurement": "MMP-3", "setting": "BF4T, 1.00E4 nM", "result": 0.073}, {"measurement": "MMP-9", "setting": "BF4T, 1.00E4 nM", "result": 0.010}, {"measurement": "PAI-I", "setting": "BF4T, 1.00E4 nM", "result": 0.013}, {"measurement": "SRB", "setting": "BF4T, 1.00E4 nM", "result": 0.000467}, {"measurement": "tPA", "setting": "BF4T, 1.00E4 nM", "result": 0.028}, {"measurement": "uPA", "setting": "BF4T, 1.00E4 nM", "result": -0.035}, {"measurement": "B cell Proliferation", "setting": "BT, 1.00E0 nM", "result": 0.00438}, {"measurement": "PBMC Cytotoxicity", "setting": "BT, 1.00E0 nM", "result": 0.034}]}]}
